Each structure is given as a SMILES string. Some results are limits rather than exact numbers.

In this test the target is T1, recombinant human GST-SYK (Homo sapiens, UniProt P43405).
T1 construct: purchased Carna Biosciences 08-176
Put plainly: Homogeneous Time-Resolved Fluorescence (HTRF) assay for the recombinant human Syk enzyme. It counts as biochemical. The following applies: HTRF assay, recombinant human GST-SYK; IC50 given as class symbols; read-out: rhSYK Activity. The method in brief:
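Phosphotyrosine product from a biotinylated Syk substrate peptide was detected by HTRF (europium antibody/SA-APC, read after 30 min) following a 45-minute room-temperature reaction at 25 μM ATP, with […] preincubated 10 minutes with inhibitor.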
Background: Time-resolved FRET reads energy transfer from a long-lived donor to a nearby acceptor.
As for `Cc1cc(Nc2nccc(C(F)(F)F)n2)cc(-c2cncc([C@]3(O)CC[C@@H](C(=O)O)CC3)c2)c1` [Example 9.69, cis-4-hydroxy-4-[5-(3-methyl-5-{[4-(trifluoromethyl)pyrimidin-2-yl]amino}phenyl)pyridin-3-yl]cyclohexanecarboxylic acid], the IC50 was less than 100 nM.

As to `Cc1cc(Nc2nccc(C(F)(F)F)n2)cc(-c2cncc([C@]3(O)CC[C@H](C(=O)O)CC3)c2)c1` [Example 9.70, trans-4-hydroxy-4-[5-(3-methyl-5-{[4-(trifluoromethyl)pyrimidin-2-yl]amino}phenyl)pyridin-3-yl]cyclohexanecarboxylic acid], the IC50 is less than 100 nM. The result for `Cc1cc(Nc2nccc(C(F)(F)F)n2)cc(-c2cncc(C(C)(C)O)c2)c1` [Example 9.71, 2-[5-(3-methyl-5-{[4-(trifluoromethyl)pyrimidin-2-yl]amino}phenyl)pyridin-3-yl]propan-2-ol] reads less than 100 nM. Turning to `CC(=O)C(C)(O)c1cncc(-c2cc(C)cc(Nc3nccc(C(F)(F)F)n3)c2)c1` (stereo not drawn) [Example 9.72, 3-hydroxy-3-[5-(3-methyl-5-{[4-(trifluoromethyl)pyrimidin-2-yl]amino}phenyl)pyridin-3-yl]butan-2-one], the IC50 is less than 100 nM. The result for `Cc1cc(Nc2nccc(C(F)(F)F)n2)cc(-c2cncc(C(C)(O)C(C)O)c2)c1` (stereo not drawn) [Example 9.73, 2-[5-(3-methyl-5-{[4-(trifluoromethyl)pyrimidin-2-yl]amino}phenyl)pyridin-3-yl]butane-2,3-diol] reads less than 100 nM; that for `Cc1cc(Nc2nccc(C3CC3)n2)cc(-c2cncc(C(O)(CO)CO)c2)c1` [Example 9.74, 2-(5-{3-[(4-cyclopropylpyrimidin-2-yl)amino]-5-methylphenyl}pyridin-3-yl)propane-1,2,3-triol], 1000 to 10000 nM. The result for `Cc1cc(Nc2nccc(C)n2)cc(-c2cncc(C(O)(CO)CO)c2)c1` [Example 9.75, 2-(5-{3-methyl-5-[(4-methylpyrimidin-2-yl)amino]phenyl}pyridin-3-yl)propane-1,2,3-triol] reads 100 to 1000 nM. As to `Cc1cc(Nc2nccc(C(F)(F)F)n2)cc(-c2cncc(C3(O)CCC(O)CC3)c2)c1` (stereo not drawn) [Example 9.76, 1-[5-(3-methyl-5-{[4-(trifluoromethyl)pyrimidin-2-yl]amino}phenyl)pyridin-3-yl]cyclohexane-1,4-diol], the IC50 was less than 100 nM. As to `CCOC(=O)C1CCCC(O)(c2cncc(-c3cc(C)cc(Nc4nccc(C(F)(F)F)n4)c3)c2)C1` (stereo not drawn) [Example 9.77, ethyl 3-hydroxy-3-[5-(3-methyl-5-{[4-(trifluoromethyl)pyrimidin-2-yl]amino}phenyl)pyridin-3-yl]cyclohexanecarboxylate], the IC50 was 100 to 1000 nM. In the case of `Cc1cc(Nc2nccc(C(F)(F)F)n2)cc(-c2cncc(C3(O)COC(C)(C)OC3)c2)c1` [Example 9.78, 2,2-dimethyl-5-[5-(3-methyl-5-{[4-(trifluoromethyl)pyrimidin-2-yl]amino}phenyl)pyridin-3-yl]-1,3-dioxan-5-ol] it was 100 to 1000 nM; in that of `Cc1cc(Nc2nccc(C(F)(F)F)n2)cc(-c2cncc(C3(O)COC3)c2)c1` [Example 9.79, 3-[5-(3-methyl-5-{[4-(trifluoromethyl)pyrimidin-2-yl]amino}phenyl)pyridin-3-yl]oxetan-3-ol], less than 100 nM. Turning to `Cc1cc(Nc2nccc(C(F)(F)F)n2)cc(-c2cncc(C(O)(CO)CO)c2)c1` [Example 9.80, 2-[5-(3-methyl-5-{[4-(trifluoromethyl)pyrimidin-2-yl]amino}phenyl)pyridin-3-yl]propane-1,2,3-triol], the IC50 is less than 100 nM. With `Cc1cc(Nc2nccc(C(F)(F)F)n2)cc(-c2cncc(C(C)(O)C(F)(F)F)c2)c1` (stereo not drawn) [Example 9.81, 1,1,1-trifluoro-2-[5-(3-methyl-5-{[4-(trifluoromethyl)pyrimidin-2-yl]amino}phenyl)pyridin-3-yl]propan-2-ol], the IC50 is less than 100 nM. The result for `Cc1cc(Nc2nccc(C(F)(F)F)n2)cc(-c2cncc(C3(O)CCN(C(N)=O)CC3)c2)c1` [Example 10.1, 4-Hydroxy-4-[5-(3-methyl-5-{[4-(trifluoromethyl)pyrimidin-2-yl]amino}phenyl)pyridin-3-yl]piperidine-1-carboxamide] reads less than 100 nM; that for `Cc1cc(Nc2nccc(C(F)(F)F)n2)cc(-c2cncc(C3(O)CCN(C(N)=O)C3)c2)c1` (stereo not drawn) [Example 10.2, 3-hydroxy-3-[5-(3-methyl-5-{[4-(trifluoromethyl)pyrimidin-2-yl]amino}phenyl)pyridin-3-yl]pyrrolidine-1-carboxamide], less than 100 nM. In the case of `Cc1cc(Nc2nccc(C(F)(F)F)n2)cc(-c2ccc(C3(O)CCN(C(N)=O)CC3)nc2)c1` [Example 10.3, 4-hydroxy-4-[5-(3-methyl-5-{[4-(trifluoromethyl)pyrimidin-2-yl]amino}phenyl)pyridin-2-yl]piperidine-1-carboxamide] it was less than 100 nM; in that of `Cc1cc(Nc2nccc(C(F)(F)F)n2)cc(-c2ccc(C3(O)CCN(C(N)=O)C3)nc2)c1` (stereo not drawn) [Example 10.4, 3-hydroxy-3-[5-(3-methyl-5-{[4-(trifluoromethyl)pyrimidin-2-yl]amino}phenyl)pyridin-2-yl]pyrrolidine-1-carboxamide], less than 100 nM. In the case of `Cc1cc(Nc2nccc(C(F)(F)F)n2)cc(-c2ccc(C3(O)CCNC(=O)CC3)nc2)c1` (stereo not drawn) [Example 11.1, 5-Hydroxy-5-[5-(3-methyl-5-{[4-(trifluoromethyl)pyrimidin-2-yl]amino}phenyl)pyridin-2-yl]azepan-2-one] it was less than 100 nM; in that of `Cc1cc(Nc2nccc(C(F)(F)F)n2)cc(-c2ccc(Oc3ccc(C(N)=O)cc3)nc2)c1` [Example 12.3, 4-{[5-(3-Methyl-5-{[4-(trifluoromethyl)pyrimidin-2-yl]amino}phenyl)pyridin-2-yl]oxy}benzamide], 100 to 1000 nM. With `Cc1cc(Nc2nccc(C(F)(F)F)n2)cc(-c2ccc(C(C)(O)c3ccc(C(N)=O)cc3)nc2)c1` (stereo not drawn) [Example 12.4, 4-{1-hydroxy-1-[5-(3-methyl-5-{[4-(trifluoromethyl)pyrimidin-2-yl]amino}phenyl)pyridin-2-yl]ethyl}benzamide], the IC50 is less than 100 nM. In the case of `Cc1cc(Nc2nccc(C(F)(F)F)n2)cc(-c2ccc(C(=O)N3CCNC(=O)C3C)nc2)c1` (stereo not drawn) [Example 12.5, 3-methyl-4-{[5-(3-methyl-5-{[4-(trifluoromethyl)pyrimidin-2-yl]amino}phenyl)pyridin-2-yl]carbonyl}piperazin-2-one], the IC50 was less than 100 nM. The result for `Cc1cc(Nc2nccc(C(F)(F)F)n2)cc(-c2ccc(C(N)=O)nc2)c1` [Example 12.6, 5-(3-methyl-5-{[4-(trifluoromethyl)pyrimidin-2-yl]amino}phenyl)pyridine-2-carboxamide] reads less than 100 nM; that for `Cc1cc(Nc2nccc(C(F)(F)F)n2)cc(-c2ccc(NCC(=O)NCC(N)=O)nc2)c1` [Example 12.7, N-[5-(3-methyl-5-{[4-(trifluoromethyl)pyrimidin-2-yl]amino}phenyl)pyridin-2-yl]glycylglycinamide], less than 100 nM; that for `Cc1cc(Nc2nccc(C(F)(F)F)n2)cc(-c2ccc(NC3(C(N)=O)CC3)nc2)c1` [Example 12.8, 1-{[5-(3-methyl-5-{[4-(trifluoromethyl)pyrimidin-2-yl]amino}phenyl)pyridin-2-yl]amino}cyclopropanecarboxamide], less than 100 nM.

The record behind these values is patent US9376418B2, “Substituted pyridine spleen tyrosine kinase (SYK) inhibitors” (Merck Sharp & Dohme Corp., priority 2012, dated 2016).
